One test concerns AMARE. Nature of the test: Herbicidal action post-emergence (PO). It counts as in vivo, Amaranthus retroflexus. The conditions noted are these: dosage 320 g/ha.
`Nc1nsc2c1NCN(Cc1ccc(F)cc1)C2=O` [Example I-64]: the AMARE is listed as 100.
`CCCC(=O)Nc1nsc2c(=O)n(CC3CCCCC3)cnc12` [Example I-45] displayed an AMARE of 100.

The test system of a further test is VIOTR. In words: Herbicidal action post-emergence (PO). In kind it is in vivo, Viola tricolor. Particulars: dosage 320 g/ha.
Regarding `Nc1nsc2c1NCN(Cc1ccc(F)cc1)C2=O` [Example I-64], the VIOTR worked out at 80.
Same read-out and setting: with `CCCC(=O)Nc1nsc2c(=O)n(CC3CCCCC3)cnc12` [Example I-45] the figure was 90.

The subject of the next test is AMARE. Nature of the test: Herbicidal action pre-emergence (PE). It counts as in vivo, Amaranthus retroflexus. Particulars: dosage 320 g/ha.
As to `O=C(Nc1nsc2c(=O)n(Cc3ccc(F)cc3F)cnc12)C(F)(Cl)C(F)(F)F` (stereo not drawn) [Example I-77], the AMARE is recorded as 100.
On the same count and under the same terms, then `O=C(CCl)Nc1nsc2c(=O)n(CC3CCCCC3)cnc12` [Example I-56], with 100; and `O=C(CC(F)(F)F)Nc1nsc2c(=O)n(Cc3ccc(F)cc3F)cnc12` [Example I-82], with 100.
The same measure, in the same setting: then `Nc1nsc2c1NCN(CC1CCCCO1)C2=O` (stereo not drawn) [Example I-43], with 100; and `Cc1nn(CC2CCCCC2)c(=O)c2snc(N)c12` [Example I-75, 3-amino-6-(cyclohexylmethyl)-4-methyl-isothiazolo[4,5-d]pyridazin-7-one], with 100.
The same measure, in the same setting: with `O=C(Nc1nsc2c(=O)n(CC3CCCCC3)cnc12)C(F)(Cl)C(F)(F)F` (stereo not drawn) [Example I-67] the figure was 100.
`Nc1nsc2c(=O)n(CC3CCCCCC3)cnc12` [Example I-31] gave an AMARE of 100.
For the compound `Nc1nsc2c1NCN(Cc1ccc(F)cc1)C2=O` [Example I-64], the AMARE is 100.
Same read-out and setting: then `CCCC(=O)Nc1nsc2c(=O)n(CC3CCCCC3)cnc12` [Example I-45], with 100.
Still for that read-out and setting: with `COCC(=O)Nc1nsc2c(=O)n(Cc3ccc(F)cc3F)cnc12` [Example I-83] the figure was 100.
Same read-out and setting: with `COC(=O)C(=O)Nc1nsc2c(=O)n(Cc3ccc(F)cc3F)cnc12` [Example I-81] the figure was 100.

A further test relates to ABUTH. In words: Herbicidal action post-emergence (PO). Particulars: dosage 320 g/ha. In kind it is in vivo, Abutilon theophrasti.
Consider `Nc1nsc2c1NCN(Cc1ccc(F)cc1)C2=O` [Example I-64], for which the ABUTH was 90.
`CCCC(=O)Nc1nsc2c(=O)n(CC3CCCCC3)cnc12` [Example I-45] registered an ABUTH of 100.

In a further test the test system is MATIN. Nature of the test: Herbicidal action pre-emergence (PE). It counts as in vivo, Matricaria inodora. Particulars: dosage 320 g/ha.
Consider `O=C(Nc1nsc2c(=O)n(Cc3ccc(F)cc3F)cnc12)C(F)(Cl)C(F)(F)F` (stereo not drawn) [Example I-77], for which the MATIN amounted to 100.
Same read-out and setting: with `O=C(CCl)Nc1nsc2c(=O)n(CC3CCCCC3)cnc12` [Example I-56] the figure was 90; with `O=C(CC(F)(F)F)Nc1nsc2c(=O)n(Cc3ccc(F)cc3F)cnc12` [Example I-82], 100; with `Nc1nsc2c1NCN(CC1CCCCO1)C2=O` (stereo not drawn) [Example I-43], 90.
The same measure, in the same setting: then `Cc1nn(CC2CCCCC2)c(=O)c2snc(N)c12` [Example I-75, 3-amino-6-(cyclohexylmethyl)-4-methyl-isothiazolo[4,5-d]pyridazin-7-one], with 90; and `O=C(Nc1nsc2c(=O)n(CC3CCCCC3)cnc12)C(F)(Cl)C(F)(F)F` (stereo not drawn) [Example I-67], with 100; and `Nc1nsc2c(=O)n(CC3CCCCCC3)cnc12` [Example I-31], with 100.
On the same count and under the same terms, then `Nc1nsc2c1NCN(Cc1ccc(F)cc1)C2=O` [Example I-64], with 100; and `CCCC(=O)Nc1nsc2c(=O)n(CC3CCCCC3)cnc12` [Example I-45], with 100.
With `COCC(=O)Nc1nsc2c(=O)n(Cc3ccc(F)cc3F)cnc12` [Example I-83], the MATIN is reported as 100.
Still for that read-out and setting: then `COC(=O)C(=O)Nc1nsc2c(=O)n(Cc3ccc(F)cc3F)cnc12` [Example I-81], with 100.

Another test concerns POLCO. Nature of the test: Herbicidal action pre-emergence (PE). It counts as in vivo, Polygonum convolvulus. Particulars: dosage 320 g/ha.
With `O=C(Nc1nsc2c(=O)n(Cc3ccc(F)cc3F)cnc12)C(F)(Cl)C(F)(F)F` (stereo not drawn) [Example I-77], the POLCO was determined as 100.
The same measure, in the same setting: with `O=C(CCl)Nc1nsc2c(=O)n(CC3CCCCC3)cnc12` [Example I-56] the figure was 100; with `O=C(CC(F)(F)F)Nc1nsc2c(=O)n(Cc3ccc(F)cc3F)cnc12` [Example I-82], 100; with `Nc1nsc2c1NCN(CC1CCCCO1)C2=O` (stereo not drawn) [Example I-43], 100.
For the compound `Cc1nn(CC2CCCCC2)c(=O)c2snc(N)c12` [Example I-75, 3-amino-6-(cyclohexylmethyl)-4-methyl-isothiazolo[4,5-d]pyridazin-7-one], the POLCO came to 90.
Still for that read-out and setting: with `O=C(Nc1nsc2c(=O)n(CC3CCCCC3)cnc12)C(F)(Cl)C(F)(F)F` (stereo not drawn) [Example I-67] the figure was 100; with `Nc1nsc2c(=O)n(CC3CCCCCC3)cnc12` [Example I-31], 100.
Still for that read-out and setting: then `Nc1nsc2c1NCN(Cc1ccc(F)cc1)C2=O` [Example I-64], with 90; and `CCCC(=O)Nc1nsc2c(=O)n(CC3CCCCC3)cnc12` [Example I-45], with 100; and `COCC(=O)Nc1nsc2c(=O)n(Cc3ccc(F)cc3F)cnc12` [Example I-83], with 90.
In turn, `COC(=O)C(=O)Nc1nsc2c(=O)n(Cc3ccc(F)cc3F)cnc12` [Example I-81] gave a POLCO of 100.

Another test relates to VIOTR. Nature of the test: Herbicidal action pre-emergence (PE). It counts as in vivo, Viola tricolor. The conditions noted are these: dosage 320 g/ha.
Consider `O=C(Nc1nsc2c(=O)n(Cc3ccc(F)cc3F)cnc12)C(F)(Cl)C(F)(F)F` (stereo not drawn) [Example I-77], for which the VIOTR was 100.
Same read-out and setting: then `O=C(CCl)Nc1nsc2c(=O)n(CC3CCCCC3)cnc12` [Example I-56], with 100; and `O=C(CC(F)(F)F)Nc1nsc2c(=O)n(Cc3ccc(F)cc3F)cnc12` [Example I-82], with 100.
`Nc1nsc2c1NCN(CC1CCCCO1)C2=O` (stereo not drawn) [Example I-43] displayed a VIOTR of 100.
Take `Cc1nn(CC2CCCCC2)c(=O)c2snc(N)c12` [Example I-75, 3-amino-6-(cyclohexylmethyl)-4-methyl-isothiazolo[4,5-d]pyridazin-7-one]: the VIOTR is 90.
Still for that read-out and setting: then `O=C(Nc1nsc2c(=O)n(CC3CCCCC3)cnc12)C(F)(Cl)C(F)(F)F` (stereo not drawn) [Example I-67], with 100; and `Nc1nsc2c(=O)n(CC3CCCCCC3)cnc12` [Example I-31], with 100; and `Nc1nsc2c1NCN(Cc1ccc(F)cc1)C2=O` [Example I-64], with 100.
Compound `CCCC(=O)Nc1nsc2c(=O)n(CC3CCCCC3)cnc12` [Example I-45] registered a VIOTR of 100.
On the same count and under the same terms, then `COCC(=O)Nc1nsc2c(=O)n(Cc3ccc(F)cc3F)cnc12` [Example I-83], with 100; and `COC(=O)C(=O)Nc1nsc2c(=O)n(Cc3ccc(F)cc3F)cnc12` [Example I-81], with 100.

Another test relates to ECHCG. In words: Herbicidal action pre-emergence (PE). It counts as in vivo, Echinochloa crus-galli. The conditions noted are these: dosage 320 g/ha.
For `O=C(Nc1nsc2c(=O)n(Cc3ccc(F)cc3F)cnc12)C(F)(Cl)C(F)(F)F` (stereo not drawn) [Example I-77], the ECHCG worked out at 80.
With `O=C(CCl)Nc1nsc2c(=O)n(CC3CCCCC3)cnc12` [Example I-56], the ECHCG is recorded as 100.
On the same count and under the same terms, then `O=C(CC(F)(F)F)Nc1nsc2c(=O)n(Cc3ccc(F)cc3F)cnc12` [Example I-82], with 100; and `Nc1nsc2c1NCN(CC1CCCCO1)C2=O` (stereo not drawn) [Example I-43], with 100.
Compound `Cc1nn(CC2CCCCC2)c(=O)c2snc(N)c12` [Example I-75, 3-amino-6-(cyclohexylmethyl)-4-methyl-isothiazolo[4,5-d]pyridazin-7-one] showed an ECHCG of 90.
The same measure, in the same setting: with `O=C(Nc1nsc2c(=O)n(CC3CCCCC3)cnc12)C(F)(Cl)C(F)(F)F` (stereo not drawn) [Example I-67] the figure was 100; with `Nc1nsc2c(=O)n(CC3CCCCCC3)cnc12` [Example I-31], 90; with `Nc1nsc2c1NCN(Cc1ccc(F)cc1)C2=O` [Example I-64], 100.
`CCCC(=O)Nc1nsc2c(=O)n(CC3CCCCC3)cnc12` [Example I-45]: the ECHCG is 100.
`COCC(=O)Nc1nsc2c(=O)n(Cc3ccc(F)cc3F)cnc12` [Example I-83] showed an ECHCG of 100.
With `COC(=O)C(=O)Nc1nsc2c(=O)n(Cc3ccc(F)cc3F)cnc12` [Example I-81], the ECHCG is 100.

The next test concerns SETVI. Nature of the test: Herbicidal action pre-emergence (PE). In kind it is in vivo, Setaria viridis. The conditions noted are these: dosage 320 g/ha.
`O=C(Nc1nsc2c(=O)n(Cc3ccc(F)cc3F)cnc12)C(F)(Cl)C(F)(F)F` (stereo not drawn) [Example I-77] displayed an SETVI of 100.
The same measure, in the same setting: with `O=C(CCl)Nc1nsc2c(=O)n(CC3CCCCC3)cnc12` [Example I-56] the figure was 100; with `O=C(CC(F)(F)F)Nc1nsc2c(=O)n(Cc3ccc(F)cc3F)cnc12` [Example I-82], 100.
Still for that read-out and setting: then `Nc1nsc2c1NCN(CC1CCCCO1)C2=O` (stereo not drawn) [Example I-43], with 90; and `Cc1nn(CC2CCCCC2)c(=O)c2snc(N)c12` [Example I-75, 3-amino-6-(cyclohexylmethyl)-4-methyl-isothiazolo[4,5-d]pyridazin-7-one], with 100; and `O=C(Nc1nsc2c(=O)n(CC3CCCCC3)cnc12)C(F)(Cl)C(F)(F)F` (stereo not drawn) [Example I-67], with 100.
On the same count and under the same terms, then `Nc1nsc2c(=O)n(CC3CCCCCC3)cnc12` [Example I-31], with 100; and `Nc1nsc2c1NCN(Cc1ccc(F)cc1)C2=O` [Example I-64], with 100; and `CCCC(=O)Nc1nsc2c(=O)n(CC3CCCCC3)cnc12` [Example I-45], with 100.
For `COCC(=O)Nc1nsc2c(=O)n(Cc3ccc(F)cc3F)cnc12` [Example I-83], the SETVI is listed as 100.
Turning to `COC(=O)C(=O)Nc1nsc2c(=O)n(Cc3ccc(F)cc3F)cnc12` [Example I-81], the SETVI is on record as 90.

Source of the values: US20200123175A1, “NOVEL ISOTHIAZOLO-BASED BICYCLES, PROCESSES FOR THEIR PREPARATION AND THEIR USE AS HERBICIDES AND/OR PLANT GROWTH REGULATORS” (Bayer CropScience Aktiengesellschaft, priority 2017, published 2020).
